The subject of this assay is C666-1 cells. The experiment in a line: C666-1 Cell Viability Assay (Resazurin cytotoxicity test). The format is cell-based. Conditions: Homo sapiens, C6661, EB virus-positive C666-1 cells, 72 hours treatment, 100-0.78 micromole/L, read-out: Inhibitory Rate. An outline of the steps:
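EBV-positive nasopharyngeal carcinoma C666-1 cells, 5×10^3 per well, were grown 24 h, then exposed to compound for 72 h at 37 °C (8-point two-fold dilutions, final 100–0.78 µM). Viability was read by resazurin reduction fluorescence after 3 h; EC50 came from the fitted inhibition curve.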
In general terms: Resazurin is reduced to fluorescent resorufin, in cell work by metabolically active cells.

SMILES strings stand for the structures. Bounds are passed on as bounds.

Consider `O=C(Cc1ccc(OC2CN(c3cccc(C(=O)O)c3-n3cccc3)C2)cc1)Nc1ccccc1` [Example 35a, 3-(3-(4-(2-oxo-2-(phenylamino)ethyl)phenoxy)azetidin-1-yl)-2-(1H-pyrrol-1-yl) benzoic acid], for which the EC50 was over 50 µM.

For `COC(=O)c1cccc(N2CC(Oc3ccc(Cn4ccnc4)cc3)C2)c1-n1cccc1` [Example 56, methyl 3-(3-(4-((1H-imidazol-1-yl)methyl)phenoxy)azetidin-1-yl)-2-(1H-pyrrol-1-yl) benzoate], the EC50 was 10 to 50 µM.

On to `COC(=O)c1cccc(N2CC(Oc3ccc(COc4ccccn4)cc3)C2)c1-n1cccc1` [Example 12, methyl 3-(3-(4-((pyridin-2-yloxy)methyl)phenoxy)azetidin-1-yl)-2-(1H-pyrrol-1-yl) benzoate], for which the EC50 was over 50 µM.

For `COC(=O)c1cccc(C#Cc2ccc(CC(=O)Nc3cccnc3)cc2)c1-c1ccc2cc[nH]c2c1` [Example 61, methyl 2-(1H-indol-6-yl)-3-((4-(2-oxo-2-(pyridin-3-ylamino)ethyl)phenyl)ethynyl) benzoate], the EC50 was under 1 µM.

In the case of `COC(=O)c1cccc(N2CC(Oc3ccc(CNc4cccnc4)cc3)C2)c1-c1cccc(Cl)c1` [Example 38, methyl 3′-chloro-6-(3-(4-((pyridin-3-ylamino)methyl)phenoxy)azetidin-1-yl)-[1,1′-biphenyl]-2-carboxylate], the EC50 lay in the range of 10 to 50 µM.

Take `CN(C)C(=O)c1cccc(N2CC(Oc3ccc(COc4cccnc4)cc3)C2)c1-n1cccc1` [Example 1e, N,N-dimethyl-3-(3-(4-((pyridin-3-yloxy)methyl)phenoxy)azetidin-1-yl)-2-(1H-pyrrol-1-yl) benzamide]: the EC50 was in the range of 1 to 10 µM.

In the case of `Cc1ccc(OCc2ccc(OC3CN(c4cccc(C(=O)O)c4-n4cccc4)C3)cc2)cn1` [Example 5a, 3-(3-(4-((6-methylpyridin-3-yloxy)methyl)phenoxy)azetidin-1-yl)-2-(1H-pyrrol-1-yl) benzoic acid], the EC50 was over 50 µM.

As to `COC(=O)c1cccc(N2CC(Oc3ccc(NC(=O)Nc4cncc(F)c4)cc3)C2)c1-n1cccc1` [Example 46, methyl 3-(3-(4-(3-(5-fluoropyridin-3-yl)ureido)phenoxy)azetidin-1-yl)-2-(1H-pyrrol-1-yl) benzoate], the EC50 was in the range of 1 to 10 µM.

As for `O=C(Cc1ccc(C#Cc2cccc(C(=O)NO)c2-c2ccccc2)cc1)Nc1cccnc1` [Example 60b, N-hydroxy-6-((4-(2-oxo-2-(pyridin-3-ylamino)ethyl)phenyl)ethynyl)-[1,1′-biphenyl]-2-carboxamide], the EC50 was under 1 µM.

Consider `O=C(Cc1ccc(OC2CN(c3ccccc3)C2)cc1)Nc1cccnc1` [Example 43c, 2-(4-((1-phenylazetidin-3-yl)oxy)phenyl)-N-(pyridin-3-yl) acetamide], for which the EC50 is 10 to 50 µM.

With `COC(=O)c1cccc(N2CC(Oc3ccc(COc4cncnc4)cc3)C2)c1-n1cccc1` [Example 14, methyl 3-(3-(4-((pyrimidin-5-yloxy)methyl)phenoxy)azetidin-1-yl)-2-(1H-pyrrol-1-yl) benzoate], the EC50 was in the range of 1 to 10 µM.

As for `COC(=O)c1cccc(N2CC(Oc3ccc(NC(=O)Cc4cccnc4)c(F)c3)C2)c1-n1cccc1` [Example 52, methyl 3-(3-(3-fluoro-4-(2-(pyridin-3-yl)acetamido)phenoxy)azetidin-1-yl)-2-(1H-pyrrol-1-yl) benzoate], the EC50 is under 1 µM.

As for `COC(=O)c1cccc(N2CC(Oc3ccc(COc4cccnc4)c(C)c3)C2)c1-n1cccc1` [Example 15, methyl 3-(3-(3-methyl-4-((pyridin-3-yloxy)methyl)phenoxy)azetidin-1-yl)-2-(1H-pyrrol-1-yl) benzoate], the EC50 was in the range of 10 to 50 µM.

As to `COC(=O)c1cccc(N2CC(Oc3ccc(CC(=O)Nc4cccnc4)cc3)C2)c1-c1ccc2cc[nH]c2c1` [Example 44, methyl 2-(1H-indol-6-yl)-3-(3-(4-(2-oxo-2-(pyridin-3-ylamino)ethyl)phenoxy)azetidin-1-yl) benzoate], the EC50 was under 1 µM.

As for `O=C(Nc1ccc(OC2CN(c3cccc(C(=O)O)c3-n3cccc3)C2)cc1)Nc1cccnc1` [Example 34a, 3-(3-(4-(3-(pyridin-3-yl)ureido)phenoxy)azetidin-1-yl)-2-(1H-pyrrol-1-yl) benzoic acid], the EC50 lay within 1 to 10 µM.

On to `COC(=O)c1cccc(N2CC(Oc3ccc(COc4cnccn4)cc3)C2)c1-n1cccc1` [Example 13, methyl 3-(3-(4-((pyrazin-2-yloxy)methyl)phenoxy)azetidin-1-yl)-2-(1H-pyrrol-1-yl) benzoate], for which the EC50 is over 50 µM.

Consider `O=C(O)c1cccc(N2CC(Oc3ccc(Oc4ccncc4)cc3)C2)c1-n1cccc1` [Example 26a, 3-(3-(4-(pyridin-4-yloxy)phenoxy)azetidin-1 - yl)-2-(1H-pyrrol-1-yl) benzoic acid], for which the EC50 fell in the range of 10 to 50 µM.

Consider `COC(=O)c1cccc(N2CC(Oc3ccc(NC(=O)Cc4cccnc4)cc3)C2)c1-c1cccc(Cl)c1` [Example 48, methyl 3′-chloro-6-(3-(4-(2-(pyridin-3-yl)acetamido)phenoxy)azetidin-1-yl)-[1,1′-biphenyl]-2-carboxylate], for which the EC50 was under 1 µM.

With `O=C(Nc1ccc(OC2CN(c3cccc(C(=O)O)c3-c3cccc(Cl)c3)C2)cc1)Nc1cccnc1` [Example 41a, 3′-chloro-6-(3-(4-(3-(pyridin-3-yl)ureido)phenoxy)azetidin-1-yl)-[1,1′-biphenyl]-2-carboxylic acid], the EC50 lay in the range of 1 to 10 µM.

Regarding `COC(=O)c1cccc(N2CC(Oc3ccc(NC(=O)Nc4cncc(C)c4)cc3)C2)c1-n1cccc1` [Example 47, methyl 3-(3-(4-(3-(5-methylpyridin-3-yl)ureido)phenoxy)azetidin-1-yl)-2-(1H-pyrrol-1-yl) benzoate], the EC50 is 10 to 50 µM.

In the case of `COC(=O)c1cccc(N2CC(Oc3ccc(NC(=O)Nc4cccc(C(F)(F)F)c4)cc3)C2)c1-n1cccc1` [Example 10, methyl 2-(1H-pyrrol-1-yl)-3-(3-(4-(3-(3-(trifluoromethyl)phenyl)ureido)phenoxy)azetidin-1-yl) benzoate], the EC50 is 10 to 50 µM.
